Measurements reported in patent US11912701B2, “Protein kinase inhibitors for promoting liver regeneration or reducing or preventing hepatocyte death” (HEPAREGENIX GMBH, priority 2018, dated 2024).

Columns and labels:
Assay type in all cases: biochemical
BRaf = molecular target: T1, BRaf (Homo sapiens, UniProt P15056); test: 33PanQinase enzyme assay, BRaf; conditions: ratio IC50(BRaf)/IC50(MKK4)
T1 construct: purchased ProQinase GmbH, Freiburg, Germany (33PanQinase Assay Service)
Procedure, shortened: (§1)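 Radiometric 33PanQinase format: kinase with substrate, ATP and compound (added in 10% DMSO stock) incubated 60 min at 30° C, stopped with 2% H3PO4, ^33Pi incorporation counted by scintillation. Single-concentration data given as % residual activity; IC50 by least-squares fit, with selectivity as IC50(off-target)/IC50(MKK4).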

JNK1 = JNK1 (Homo sapiens, UniProt P45983); test: 33PanQinase enzyme assay, JNK1; parameters: purchased ProQinase GmbH, Freiburg, Germany (33PanQinase Assay Service); conditions: ratio IC50(JNK1)/IC50(MKK4)
Sequence of JNK1 (P45983 whole entry): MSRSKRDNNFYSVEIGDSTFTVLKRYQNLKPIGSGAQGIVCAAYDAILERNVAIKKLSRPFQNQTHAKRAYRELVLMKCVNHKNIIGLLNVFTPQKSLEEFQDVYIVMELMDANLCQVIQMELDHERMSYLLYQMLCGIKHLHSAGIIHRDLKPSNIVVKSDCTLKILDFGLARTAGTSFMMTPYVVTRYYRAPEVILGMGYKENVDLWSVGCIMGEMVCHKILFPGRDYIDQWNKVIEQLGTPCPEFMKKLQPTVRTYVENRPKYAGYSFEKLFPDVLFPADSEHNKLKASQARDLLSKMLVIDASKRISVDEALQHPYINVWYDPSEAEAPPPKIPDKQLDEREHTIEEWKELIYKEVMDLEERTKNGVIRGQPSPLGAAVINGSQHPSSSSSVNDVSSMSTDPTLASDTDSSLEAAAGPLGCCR
Procedure, shortened: as §1

MKK7 = molecular target: T2, MKK7 (Homo sapiens, UniProt O14733); test: 33PanQinase enzyme assay, MKK7; parameters: purchased ProQinase GmbH, Freiburg, Germany (33PanQinase Assay Service); conditions: ratio IC50(MKK7)/IC50(MKK4)
T2 sequence (O14733 1-419): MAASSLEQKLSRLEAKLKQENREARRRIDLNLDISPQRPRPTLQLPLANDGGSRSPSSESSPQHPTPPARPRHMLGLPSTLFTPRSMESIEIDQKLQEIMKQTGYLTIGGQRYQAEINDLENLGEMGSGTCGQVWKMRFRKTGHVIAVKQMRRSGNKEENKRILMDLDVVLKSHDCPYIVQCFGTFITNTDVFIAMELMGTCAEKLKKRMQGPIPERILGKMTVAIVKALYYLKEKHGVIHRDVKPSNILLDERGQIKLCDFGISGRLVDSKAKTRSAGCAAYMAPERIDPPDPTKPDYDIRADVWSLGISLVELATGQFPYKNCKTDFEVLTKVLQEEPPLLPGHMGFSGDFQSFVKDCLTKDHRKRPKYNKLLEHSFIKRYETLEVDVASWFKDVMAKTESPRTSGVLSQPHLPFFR
Procedure, shortened: as §1

MKK4 = molecular target: T3, MKK4 (Homo sapiens, UniProt P45985); test: 33PanQinase enzyme assay, MKK4; conditions: assay 'IC50'; read-out: Potency MKK4 (IC50)
T3 construct: purchased ProQinase GmbH, Freiburg, Germany (33PanQinase Assay Service)
T3 sequence (P45985 1-399): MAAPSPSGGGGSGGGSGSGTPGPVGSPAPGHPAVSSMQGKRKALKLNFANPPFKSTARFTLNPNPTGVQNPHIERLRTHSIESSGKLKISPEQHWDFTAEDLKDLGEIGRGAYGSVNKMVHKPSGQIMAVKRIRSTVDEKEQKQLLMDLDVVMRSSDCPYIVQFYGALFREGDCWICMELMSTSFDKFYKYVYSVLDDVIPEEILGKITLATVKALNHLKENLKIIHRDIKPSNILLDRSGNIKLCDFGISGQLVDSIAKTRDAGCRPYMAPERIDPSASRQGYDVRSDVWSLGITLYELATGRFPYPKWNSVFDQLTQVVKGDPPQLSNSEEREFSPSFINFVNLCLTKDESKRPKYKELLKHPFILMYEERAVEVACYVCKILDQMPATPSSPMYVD
Procedure, shortened: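 Radiometric 33PanQinase assay: kinase, substrate, ATP and compound in standard buffer, 60 min at 30 °C; 33Pi incorporation read by scintillation counting.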

T1 sequence (P15056 whole entry, species assumed): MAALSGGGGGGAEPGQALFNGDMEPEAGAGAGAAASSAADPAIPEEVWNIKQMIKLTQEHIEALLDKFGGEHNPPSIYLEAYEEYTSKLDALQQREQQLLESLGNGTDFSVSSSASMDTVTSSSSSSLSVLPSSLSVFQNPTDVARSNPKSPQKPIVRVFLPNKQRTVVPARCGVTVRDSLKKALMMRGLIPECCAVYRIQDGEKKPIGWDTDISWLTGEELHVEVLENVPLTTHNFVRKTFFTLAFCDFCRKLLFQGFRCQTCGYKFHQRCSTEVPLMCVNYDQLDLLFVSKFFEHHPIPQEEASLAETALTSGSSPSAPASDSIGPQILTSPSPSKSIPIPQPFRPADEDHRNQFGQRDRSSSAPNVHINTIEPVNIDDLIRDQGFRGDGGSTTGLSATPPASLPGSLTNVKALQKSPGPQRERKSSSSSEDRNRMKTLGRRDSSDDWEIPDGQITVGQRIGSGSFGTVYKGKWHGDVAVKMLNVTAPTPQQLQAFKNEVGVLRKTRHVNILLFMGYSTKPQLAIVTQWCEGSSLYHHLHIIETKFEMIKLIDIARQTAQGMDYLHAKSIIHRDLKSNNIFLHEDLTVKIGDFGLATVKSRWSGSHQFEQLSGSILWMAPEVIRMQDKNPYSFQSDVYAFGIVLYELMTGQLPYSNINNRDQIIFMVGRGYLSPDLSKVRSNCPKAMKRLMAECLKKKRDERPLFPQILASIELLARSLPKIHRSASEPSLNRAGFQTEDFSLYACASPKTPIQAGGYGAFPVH

SMILES: CCCS(=O)(=O)Nc1c(F)ccc(C(=O)c2c[nH]c3ncc(-c4cnc(OCCCN(C)C)nc4)cc23)c1F [Example 200, N-(3-(5-(2-(3-(dimethylamino)propoxy)pyrimidin-5-yl)-1H-pyrrolo[2,3-b]pyridine-3-carbonyl)-2,6-difluorophenyl)propane-1-sulfonamide]
- Selectivity Braf, IC50(off-target)/IC50(MKK4) (BRaf): + (10 ≥ IC50(off-target)/IC50(MKK4) > 3)
- Selectivity JNK1, IC50(off-target)/IC50(MKK4) (JNK1): + (10 ≥ IC50(off-target)/IC50(MKK4) > 3)
- Selectivity IVIKK7, IC50(off-target)/IC50(MKK4) (MKK7): +++ (IC50(off-target)/IC50(MKK4) > 100)
- IC50 (MKK4): 1000 to 10000 nM

SMILES: CCCS(=O)(=O)Nc1ccc(F)c(C(=O)c2c[nH]c3ncc(-c4cnccn4)cc23)c1F [Example 89, N-(2,4-difluoro-3-(5-(pyrazin-2-yl)-1H-pyrrolo[2,3-b]pyridine-3-carbonyl)phenyl)propane-1-sulfonamide]
- Selectivity Braf, IC50(off-target)/IC50(MKK4) (BRaf): ◯ (3 ≥ IC50(off-target)/IC50(MKK4))
- Selectivity JNK1, IC50(off-target)/IC50(MKK4) (JNK1): ◯ (3 ≥ IC50(off-target)/IC50(MKK4))
- Selectivity IVIKK7, IC50(off-target)/IC50(MKK4) (MKK7): ++ (100 ≥ IC50(off-target)/IC50(MKK4) > 10)
- IC50 (MKK4): 1000 to 10000 nM

SMILES: CCCS(=O)(=O)Nc1ccc(F)c(C(=O)c2c[nH]c3ncc(N4CC(C(=O)O)C4)cc23)c1F [Example 137, 1-(3-(2,6-difluoro-3-(propylsulfonamido)benzoyl)-1H-pyrrolo[2,3-b]pyridin-5-yl)azetidine-3-carboxylic acid]
- Selectivity Braf, IC50(off-target)/IC50(MKK4) (BRaf): ◯ (3 ≥ IC50(off-target)/IC50(MKK4))
- Selectivity JNK1, IC50(off-target)/IC50(MKK4) (JNK1): + (10 ≥ IC50(off-target)/IC50(MKK4) > 3)
- Selectivity IVIKK7, IC50(off-target)/IC50(MKK4) (MKK7): +++ (IC50(off-target)/IC50(MKK4) > 100)
- IC50 (MKK4): 100 to 1000 nM

SMILES: CCCS(=O)(=O)Nc1ccc(F)c(C(=O)c2c[nH]c3ncc(-c4cccc(C)c4)cc23)c1F [Example 114, N-(2,4-difluoro-3-(5-(m-tolyl)-1H-pyrrolo[2,3-b]pyridine-3-carbonyl)phenyl)propane-1-sulfonamide]
- Selectivity Braf, IC50(off-target)/IC50(MKK4) (BRaf): ◯ (3 ≥ IC50(off-target)/IC50(MKK4))
- Selectivity JNK1, IC50(off-target)/IC50(MKK4) (JNK1): + (10 ≥ IC50(off-target)/IC50(MKK4) > 3)
- Selectivity IVIKK7, IC50(off-target)/IC50(MKK4) (MKK7): +++ (IC50(off-target)/IC50(MKK4) > 100)
- IC50 (MKK4): 100 to 1000 nM

SMILES: CCCS(=O)(=O)Nc1c(F)ccc(C(=O)c2c[nH]c3ncc(-c4cccc(C#N)c4)cc23)c1F [Example 143, N-(3-(5-(3-cyanophenyl)-1-pyrrolo[2,3-b]pyridine-3-carbonyl)-2,6-difluorophenyl)propane-1-sulfonamide]
- Selectivity Braf, IC50(off-target)/IC50(MKK4) (BRaf): +++ (IC50(off-target)/IC50(MKK4) > 100)
- Selectivity JNK1, IC50(off-target)/IC50(MKK4) (JNK1): ++ (100 ≥ IC50(off-target)/IC50(MKK4) > 10)
- Selectivity IVIKK7, IC50(off-target)/IC50(MKK4) (MKK7): +++ (IC50(off-target)/IC50(MKK4) > 100)
- IC50 (MKK4): < 100 nM

SMILES: CCCS(=O)(=O)Nc1ccc(F)c(C(=O)c2c[nH]c3ncc(-c4ccc(NC(C)=O)cc4)cc23)c1F [Example 116, N-(4-(3-(2,6-difluoro-3-(propylsulfonamido)benzoyl)-1H-pyrrolo[2,3-b]pyridin-5-yl)phenyl)acetamide]
- Selectivity Braf, IC50(off-target)/IC50(MKK4) (BRaf): ◯ (3 ≥ IC50(off-target)/IC50(MKK4))
- Selectivity JNK1, IC50(off-target)/IC50(MKK4) (JNK1): ◯ (3 ≥ IC50(off-target)/IC50(MKK4))
- Selectivity IVIKK7, IC50(off-target)/IC50(MKK4) (MKK7): +++ (IC50(off-target)/IC50(MKK4) > 100)
- IC50 (MKK4): 100 to 1000 nM

SMILES: CCCS(=O)(=O)Nc1c(F)ccc(C(=O)c2c[nH]c3ncc(-c4cnc(C#N)nc4)cc23)c1F [Example 189, N-(3-(5-(2-cyanopyrimidin-5-yl)-1H-pyrrolo[2,3-b]pyridine-3-carbonyl)-2,6-difluorophenyl)propane-1-sulfonamide]
- Selectivity Braf, IC50(off-target)/IC50(MKK4) (BRaf): ++ (100 ≥ IC50(off-target)/IC50(MKK4) > 10)
- Selectivity JNK1, IC50(off-target)/IC50(MKK4) (JNK1): ++ (100 ≥ IC50(off-target)/IC50(MKK4) > 10)
- Selectivity IVIKK7, IC50(off-target)/IC50(MKK4) (MKK7): +++ (IC50(off-target)/IC50(MKK4) > 100)
- IC50 (MKK4): 100 to 1000 nM

SMILES: CCCS(=O)(=O)Nc1ccc(F)c(C(=O)c2c[nH]c3ncc(N4CCNCC4)cc23)c1F [Example 71, N-(2,4-difluoro-3-(5-(piperazin-1-yl)-1H-pyrrolo[2,3-b]pyridine-3-carbonyl)phenyl)propane-1-sulfonamide]
- Selectivity Braf, IC50(off-target)/IC50(MKK4) (BRaf): ◯ (3 ≥ IC50(off-target)/IC50(MKK4))
- Selectivity JNK1, IC50(off-target)/IC50(MKK4) (JNK1): ◯ (3 ≥ IC50(off-target)/IC50(MKK4))
- Selectivity IVIKK7, IC50(off-target)/IC50(MKK4) (MKK7): ++ (100 ≥ IC50(off-target)/IC50(MKK4) > 10)
- IC50 (MKK4): 1000 to 10000 nM

SMILES: CCCS(=O)(=O)Nc1ccc(F)c(C(=O)c2c[nH]c3ncc(-c4ccc(P(C)(C)=O)cc4)cc23)c1F [Example 93, N-(3-(5-(4-(dimethylphosphoryl)phenyl)-1H-pyrrolo[2,3-b]pyridine-3-carbonyl)-2,4-difluorophenyl)propane-1-sulfonamide]
- Selectivity Braf, IC50(off-target)/IC50(MKK4) (BRaf): ◯ (3 ≥ IC50(off-target)/IC50(MKK4))
- Selectivity JNK1, IC50(off-target)/IC50(MKK4) (JNK1): ++ (100 ≥ IC50(off-target)/IC50(MKK4) > 10)
- Selectivity IVIKK7, IC50(off-target)/IC50(MKK4) (MKK7): +++ (IC50(off-target)/IC50(MKK4) > 100)
- IC50 (MKK4): 100 to 1000 nM

SMILES: CCCS(=O)(=O)Nc1ccc(F)c(C(=O)c2c[nH]c3ncc(N4CCC(O)CC4)cc23)c1F [Example 136, N-(2,4-difluoro-3-(5-(4-hydroxypiperidin-1-yl)-1H-pyrrolo[2,3-b]pyridine-3-carbonyl)phenyl)propane-1-sulfonamide]
- Selectivity Braf, IC50(off-target)/IC50(MKK4) (BRaf): ◯ (3 ≥ IC50(off-target)/IC50(MKK4))
- Selectivity JNK1, IC50(off-target)/IC50(MKK4) (JNK1): ◯ (3 ≥ IC50(off-target)/IC50(MKK4))
- Selectivity IVIKK7, IC50(off-target)/IC50(MKK4) (MKK7): ++ (100 ≥ IC50(off-target)/IC50(MKK4) > 10)
- IC50 (MKK4): 1000 to 10000 nM

SMILES: CCCS(=O)(=O)Nc1c(F)ccc(C(=O)c2c[nH]c3ncc(-c4cnc(N5CCN(C)CC5)nc4)cc23)c1F [Example 194, N-(2,6-difluoro-3-(5-(2-(4-methylpiperazin-1-yl)pyrimidin-5-yl)-1H-pyrrolo[2,3-b]pyridine-3-carbonyl)phenyl)propane-1-sulfonamide]
- Selectivity Braf, IC50(off-target)/IC50(MKK4) (BRaf): ++ (100 ≥ IC50(off-target)/IC50(MKK4) > 10)
- Selectivity JNK1, IC50(off-target)/IC50(MKK4) (JNK1): ++ (100 ≥ IC50(off-target)/IC50(MKK4) > 10)
- Selectivity IVIKK7, IC50(off-target)/IC50(MKK4) (MKK7): +++ (IC50(off-target)/IC50(MKK4) > 100)
- IC50 (MKK4): 100 to 1000 nM

SMILES: CS(=O)(=O)Nc1c(F)ccc(C(=O)c2c[nH]c3ncc(-c4cccc5ccccc45)cc23)c1F [Example 214, N-(2,6-difluoro-3-(5-(naphthalen-1-yl)-1H-pyrrolo[2,3-b]pyridine-3-carbonyl)phenyl)methanesulfonamide]
- Selectivity Braf, IC50(off-target)/IC50(MKK4) (BRaf): +++ (IC50(off-target)/IC50(MKK4) > 100)
- Selectivity JNK1, IC50(off-target)/IC50(MKK4) (JNK1): ++ (100 ≥ IC50(off-target)/IC50(MKK4) > 10)
- Selectivity IVIKK7, IC50(off-target)/IC50(MKK4) (MKK7): +++ (IC50(off-target)/IC50(MKK4) > 100)
- IC50 (MKK4): 100 to 1000 nM

SMILES: CCCS(=O)(=O)Nc1c(F)ccc(C(=O)c2c[nH]c3ncc(-c4cnc(N5CCC5)nc4)cc23)c1F [Example 199, N-(3-(5-(2-(azetidin-1-yl)pyrimidin-5-yl)-1H-pyrrolo[2,3-b]pyridine-3-carbonyl)-2,6-difluorophenyl)propane-1-sulfonamide]
- Selectivity Braf, IC50(off-target)/IC50(MKK4) (BRaf): ++ (100 ≥ IC50(off-target)/IC50(MKK4) > 10)
- Selectivity JNK1, IC50(off-target)/IC50(MKK4) (JNK1): ++ (100 ≥ IC50(off-target)/IC50(MKK4) > 10)
- Selectivity IVIKK7, IC50(off-target)/IC50(MKK4) (MKK7): +++ (IC50(off-target)/IC50(MKK4) > 100)
- IC50 (MKK4): < 100 nM

SMILES: CCCS(=O)(=O)Nc1c(F)ccc(C(=O)c2c[nH]c3ncc(-c4cnc(NCCCOC)nc4)cc23)c1F [Example 192, N-(2,6-difluoro-3-(5-(2-((3-methoxypropyl)amino)pyrimidin-5-yl)-1H-pyrrolo[2,3-b]pyridine-3-carbonyl)phenyl)propane-1-sulfonamide]
- Selectivity Braf, IC50(off-target)/IC50(MKK4) (BRaf): +++ (IC50(off-target)/IC50(MKK4) > 100)
- Selectivity JNK1, IC50(off-target)/IC50(MKK4) (JNK1): ++ (100 ≥ IC50(off-target)/IC50(MKK4) > 10)
- Selectivity IVIKK7, IC50(off-target)/IC50(MKK4) (MKK7): +++ (IC50(off-target)/IC50(MKK4) > 100)
- IC50 (MKK4): 100 to 1000 nM
